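Exposure lasted 48 hours, with cells grown in 96-well plates and compounds tested at five concentrations. Here, GI50 denotes the concentration required for 50% inhibition of growth.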 Active and inactive are the calls of the source. Rule as the data show it: active = GI50 up to about 1.1 µM and inactive = higher.
Tests used:
Experiment in all cases: DTP human tumour cell line panel, 48 h
[1] = test system: HOP-92
[2] = test system: M14
[3] = test system: IGROV-1
[4] = test system: RXF 393
[5] = test system: HCC 2998
[6] = test system: HCT-15
[7] = test system: OVCAR-3
[8] = test system: UACC-62
[9] = test system: OVCAR-5
[10] = test system: 786-0
[11] = test system: T47D
[12] = test system: NCI/ADR-RES
[13] = test system: SF-295
[14] = test system: SN12C
[15] = test system: CAKI-1
[16] = test system: MCF7
[17] = test system: MDA-N
[18] = test system: U-251
[19] = test system: NCI-H226
[20] = test system: DU-145
[21] = test system: OVCAR-8
[22] = test system: PC-3
[23] = test system: UACC-257
[24] = test system: BT-549
[25] = test system: A549
[26] = test system: NCI-H522
[27] = test system: SR
[28] = test system: SNB-19
[29] = test system: A498
[30] = test system: SF-268
[31] = test system: UO-31
[32] = test system: HT-29
[33] = test system: SK-MEL-28
[34] = test system: NCI-H460
[35] = test system: HCT-116
[36] = test system: Malme-3M
[37] = test system: HL-60
[38] = test system: CCRF-CEM
[39] = test system: COLO 205
[40] = test system: ACHN
[41] = test system: OVCAR-4
[42] = test system: MDA-MB-435
[43] = test system: KM12
[44] = test system: SK-MEL-2
[45] = test system: SW-620
[46] = test system: RPMI-8226
[47] = test system: SNB-75
[48] = test system: NCI-H23
[49] = test system: K562
[50] = test system: SK-OV-3
[51] = test system: SF-539
[52] = test system: HOP-62
[53] = test system: EKVX
[54] = test system: MOLT-4
[55] = test system: MDA-MB-231
[56] = test system: SK-MEL-5
[57] = test system: TK-10
[58] = test system: Hs-578T
[59] = test system: LOX IMVI

Measured: GI50

O=c1c2cc(-c3ccccc3)cnc2sn1-c1ccc([N+](=O)[O-])cc1
55.2 µM: [6]
inactive: [1] 20.6 µM | [2] 50.6 µM | [3] 29.6 µM | [4] 29.9 µM | [5] > 100 µM | [7] 16.9 µM | [8] 17.7 µM | [9] > 100 µM | [10] 34.5 µM | [11] 44.1 µM | [12] 32.7 µM | [13] 27 µM | [14] 60 µM | [15] 39.6 µM | [16] 49 µM | [17] 60.4 µM | [18] 21.6 µM | [19] 44.5 µM | [20] 61.4 µM | [21] 33.2 µM | [22] 33.7 µM | [23] > 100 µM | [24] 52.8 µM | [25] 31.8 µM | [26] 22.1 µM | [27] > 100 µM | [28] 25.4 µM | [29] 23.7 µM | [30] 48.2 µM | [31] 40 µM | [32] 68.2 µM | [33] 58.1 µM | [34] 37.3 µM | [35] 21.3 µM | [36] 40.6 µM | [37] 37.8 µM | [38] 19 µM | [39] > 100 µM | [40] 24.9 µM | [41] 39 µM | [42] 42.3 µM | [43] 38.9 µM | [44] 35.6 µM | [45] 94.8 µM | [46] 23.4 µM | [47] 25.1 µM | [48] 15.1 µM | [49] 35.8 µM | [50] 26.9 µM | [51] 42.7 µM | [52] 26.5 µM | [53] 53 µM | [54] 71.3 µM | [55] 41.3 µM

COC(=O)C(=O)C(C(=O)C(=O)Nc1ccc(C)cc1C)c1nc2ccc(Cl)cc2nc1O (stereo not drawn)
> 100 µM: [6]
inactive: [1] > 100 µM | [2] > 100 µM | [3] > 100 µM | [56] > 100 µM | [4] > 100 µM | [5] > 100 µM | [7] > 100 µM | [8] > 100 µM | [9] > 100 µM | [10] > 100 µM | [12] > 100 µM | [13] > 100 µM | [14] > 100 µM | [15] > 100 µM | [16] > 100 µM | [17] > 100 µM | [18] > 100 µM | [19] > 100 µM | [20] > 100 µM | [21] > 100 µM | [22] > 100 µM | [23] > 100 µM | [24] > 100 µM | [25] > 100 µM | [26] > 100 µM | [28] > 100 µM | [30] > 100 µM | [31] 47.6 µM | [32] > 100 µM | [57] > 100 µM | [33] > 100 µM | [34] > 100 µM | [35] > 100 µM | [37] 78 µM | [38] > 100 µM | [39] > 100 µM | [40] > 100 µM | [41] > 100 µM | [42] > 100 µM | [43] > 100 µM | [44] > 100 µM | [58] > 100 µM | [45] > 100 µM | [47] > 100 µM | [48] > 100 µM | [59] > 100 µM | [50] > 100 µM | [51] > 100 µM | [52] > 100 µM | [53] 34.6 µM | [54] > 100 µM | [55] > 100 µM
